In data set [1] the test system is Plasmodium falciparum. As to the kind of experiment: Antimalarial activity against […] infected in human RBC assessed as inhibition of plasmodial growth at 1 uM by SYBR green dye based spectrofluorometric analysis relative to control. The class given is functional. Particulars: 3D7, Erythrocyte.
Data set [2] concerns Plasmodium falciparum. As to the kind of experiment: Antimalarial activity against […] infected in human RBC assessed as inhibition of plasmodial growth at 10 uM by SYBR green dye based spectrofluorometric analysis relative to control. The class given is functional. As to conditions: 3D7, Erythrocyte.
The subject of data set [3] is Plasmodium falciparum. As to the kind of experiment: Antiplasmodial activity against Plasmodium falciparum 3D7. The class given is functional, organism-based.
A short description of data set [4]: Cytotoxicity against human U-937 cells. The class given is toxicity, cell-based.
The subject of data set [5] is Plasmodium falciparum. The experiment in a line: Antiplasmodial activity against […] incubated for 90 hrs by SYBR green I dye based analysis. The class given is functional, organism-based. Particulars: 3D7, 90 h.
Data set [6] can be described thus: Cytotoxicity against human U-937 cells assessed as reduction in cell viability incubated for 24 hrs by MTT assay. The class given is toxicity, cell-based. On the technique in general: Formazan colour is commonly taken as a measure of viable cells.
Data set [7] in a line: Cytotoxicity against human HepG2 cells. The class given is toxicity, cell-based.
Data set [8] deals with Plasmodium falciparum. As to the kind of experiment: Antimalarial activity against chloroquine-sensitive synchronized late stage trophozoite Plasmodium falciparum 3D7 infected in human RBC assessed as inhibition of plasmodial growth by giemsa staining based analysis. As to conditions: 3D7, Erythrocyte. The class given is functional, organism-based.
For data set [9], the system named is Plasmodium falciparum. The experiment in a line: Antimalarial activity against chloroquine-resistant synchronized late stage trophozoite Plasmodium falciparum RKL-9 infected in human RBC assessed as inhibition of plasmodial growth by giemsa staining based analysis. The class given is functional, organism-based. As to conditions: RKL-9, Erythrocyte.
The subject of data set [10] is Plasmodium falciparum. The experiment in a line: Antimalarial activity against chloroquine-resistant Plasmodium falciparum RKL-9 infected in human RBC assessed as reduction of plasmodial growth by SYBR green dye based spectrofluorometric analysis. The class given is functional, organism-based.
Data set [11] relates to Erythrocyte. As to the kind of experiment: Hemolytic activity in human RBC assessed as hemolysis upto 5 uM incubated for 2 hrs. The class given is toxicity, cell-based.
The nature of data set [12]: Therapeutic index, ratio of CC50 for human HepG2 cells to IC50 for chloroquine-sensitive synchronized late stage trophozoite Plasmodium falciparum 3D7 infected in human RBC. As to conditions: read-out: TI. The class given is toxicity.
The nature of data set [13]: Cytotoxicity against […] cell upto 500 uM. The class given is toxicity, cell-based. Particulars: human.
A short description of data set [14]: Therapeutic index, ratio of cytotoxicity against […] cells to IC50 for chloroquine-sensitive synchronized late stage trophozoite Plasmodium falciparum 3D7 infected in human RBC. As to conditions: read-out: TI. The class given is toxicity, cell-based.
The test system of data set [15] is Plasmodium falciparum. The experiment in a line: Antiplasmodial activity against synchronized ring stage Plasmodium falciparum 3D7 infected in human RBC assessed as failure of egress by measuring accumulation at late schizont stage at IC50 concentration measured after 60 hrs by giemsa staining based light microscopic analysis. The class given is functional, organism-based.

Data set [16] deals with Plasmodium falciparum. As to the kind of experiment: Induction of mitochondrial membrane depolarization in trophozoite stage Plasmodium falciparum 3D7 infected in human RBC assessed as increase in green fluorescence at IC50 concentration incubated for 3 hrs by JC-1 dye based fluorescence microscopic analysis. The class given is functional, organism-based.
For data set [17], the system named is Plasmodium falciparum. The experiment in a line: Induction of mitochondrial membrane depolarization in trophozoite stage Plasmodium falciparum 3D7 infected in human RBC assessed as decrease in red to green fluorescence ratio at IC50 concentration incubated for 3 hrs by JC-1 dye based fluorescence microscopic analysis. The class given is functional, organism-based.

Data set [18] deals with Plasmodium falciparum. The experiment in a line: Induction of mitochondrial membrane depolarization in trophozoite stage Plasmodium falciparum 3D7 infected in human RBC assessed as red to green fluorescence ratio at IC50 concentration incubated for 3 hrs by JC-1 dye based spectrofluorometric analysis (reference value: 6.96+/-0.94). The class given is functional.
Data set [19] has as its system Plasmodium falciparum. As to the kind of experiment: Binding affinity to recombinant N-terminal 6His tagged Plasmodium falciparum alpha-1 tubulin expressed in Escherichia coli BL21 assessed as dissociation constant at 0.78 to 75 uM by SPR analysis. Particulars: dose 0.78-75 µM. (In SPR one partner is held on a chip, and binding of the other changes the refractive index at the surface.)

The subject of data set [20] is Plasmodium falciparum. The experiment in a line: Binding affinity to recombinant N-terminal 6His tagged Plasmodium falciparum beta-tubulin expressed in Escherichia coli BL21 at 0.78 to 75 uM by SPR analysis. As to conditions: dose 0.78-75 µM.
Data set [21] has as its system Plasmodium falciparum. The experiment in a line: Binding affinity to recombinant N-terminal 6His tagged Plasmodium falciparum alpha-1 tubulin expressed in Escherichia coli BL21 assessed as thermo-stabilization incubated at 4 to 80 degreeC for 3 mins followed by 5 mins incubation at room temperature by thermal shift assay. As to conditions: time 8.0 min.

Activity calls are given as the source filed them. No cut-off for these calls is given here.

One may read the inhibition as the change of the read-out against control, counted positive when it falls. A word on the IC50: it is the concentration that gives 50% inhibition. What is called CC50 is the concentration at which the toxic effect on the cells reaches its halfway point.

Take `COc1ccc(-n2cc(Cn3c([C@@H](CC(C)C)N4C(=O)c5ccc(C)cc5C4=O)nc4ccccc43)nn2)cc1`: the inhibition at 1 µM in data set [1] is -43%. In addition, the inhibition at 10 µM in data set [2] is 65%.
`CC(C)C[C@H](c1nc2ccccc2n1Cc1cn(-c2ccc(C(F)(F)F)cc2)nn1)N1C(=O)c2ccccc2C1=O`: the inhibition at 1 µM in data set [1] is -53%. For the same compound, in [2], the inhibition at 10 µM stood at 88%.
`CCC(C)[C@H](c1nc2ccccc2n1Cc1cn(-c2ccc(F)cc2)nn1)N1C(=O)c2ccccc2C1=O` (some centres not stated) registered a half-maximal inhibitory concentration (IC50) in data set [3] of 900 nM. This compound came in with a half-maximal cytotoxic concentration (CC50) in data set [4] of 28800 nM.
Take `CCC(C)[C@H](c1nc2ccccc2n1Cc1cn(-c2c(F)c(F)c(F)c(F)c2F)nn1)N1C(=O)c2ccccc2C1=O` (some centres not stated): the inhibition at 1 µM in [1] is -44%. In data set [2], the inhibition at 10 µM is 77%.
The corresponding values for `CC(C)[C@H](c1nc2ccccc2n1Cc1cn(-c2c(F)cccc2F)nn1)N1C(=O)c2ccccc2C1=O` are -26% and 91%.
Compound `CCC(C)C(c1nc2ccccc2n1Cc1cn(-c2ccc(F)cc2)nn1)N1C(=O)c2ccccc2C1=O` (configuration not stated) showed an IC50 in data set [5] of 900 nM. Also, the CC50 at 24 h in data set [6] amounted to 28800 nM.
For `Cc1ccc2c(c1)C(=O)N([C@H](CC(C)C)c1nc3ccccc3n1Cc1c[nH]nn1)C2=O`, the inhibition at 1 µM in [1] is -64%. Also, the inhibition at 10 µM in data set [2] was determined as 71%.
In the case of `CCC(C)[C@H](c1nc2ccccc2n1Cc1cn(-c2ccccc2F)nn1)N1C(=O)c2ccc(C)cc2C1=O` (some centres not stated), the inhibition at 1 µM in data set [1] was -23%. For the same compound, the inhibition at 10 µM in [2] came out at 91%.
Turning to `CCC(C)C(c1nc2ccccc2n1Cc1c[nH]nn1)N1C(=O)c2ccccc2C1=O` (configuration not stated), in data set [5], the 50% inhibitory concentration (IC50) was 700 nM. Further, in data set [6], the CC50 at 24 h amounted to 2080 nM.
Turning to `CCC(C)[C@H](c1nc2ccccc2n1Cc1cn(-c2ccc(F)cc2)nn1)N1C(=O)c2ccc(C)cc2C1=O` (some centres not stated), the IC50 in [7] was > 100000 nM; in data set [8], 2200 nM; in data set [9], 3430 nM. In addition, in data set [1], the inhibition at 1 µM came to 20%. In addition, the inhibition at 10 µM in [2] is 64%. Further, the Activity result in data set [10] is “Dose dependent effect”; in [11], “Non-Toxic”; in data set [13] it was “Non-Toxic”; in data set [18], 5.56. The selectivity ratio was 46 in data set [12] and > 800 in data set [14]. Besides, the outcome in [15], in data set [16], in data set [17] and in data set [21] was Active. The result in data set [19] and in data set [20] was inactive.
On to `Cc1ccc2c(c1)C(=O)N([C@H](CC(C)C)c1nc3ccccc3n1Cc1cn(-c3ccc(C(F)(F)F)cc3)nn1)C2=O`, for which, in data set [1], the inhibition at 1 µM worked out at 37%. In addition, the inhibition at 10 µM in [2] was determined as 75%.
